Ends that are not written are not given here.
Tests used:
[1] = test system: EAE; experiment: Prevention of EAE by immunization with TCR peptide (Example VI); type: in vivo, Lewis rats
From the text: EAE is a well-recognized rat model of the human autoimmune disease, multiple sclerosis. […] In this model, the disease is induced by injecting the subject rat with an encephalitogenic form of myelin basic protein, such as, for example, guinea pig basic protein (GPBP) or a synthetic peptide that corresponds to residues 72-89 of GPBP (GPBP(72-89)). Injection of either of these peptides in complete Freund's adjuvant (CFA) induces encephalitogenic T cell clones that utilize preferentially the rat homologs of mouse TCR Vα2 and Vβ8 genes (Chou, Y. K., et al., J. Neurosci. Res. 22:181-187 (1989); Burns, F. R., et al., J. Exp. Med. 169:27-39 (1989)).
^1 EAE was induced by SC challenge with 50 μg GPBP + 400 μg
^2 Rats were injected SC with either: (1) 100 μg of the TCR peptid
^3 Values represent the mean of the maximum severity of EAE. 0, no

[2] = test system: DH reaction; experiment: Delayed hypersensitivity (DH) ear swelling to TCR peptide (Example VI); type: in vivo, Lewis rats; conditions: to 50 μg TCR Vβ8(39-59) in Vβ8(39-59)-immunized rats
Protocol: The Vβ8(39-59)-immunized rats developed both specific antibodies to the Vβ8(39-59) peptide and a delayed hypersensitivity (DH) response of 0.17 mm ear swelling to 50 μg TCR Vβ8(39-59) peptide.

[3] = test system: EAE; experiment: Prevention and suppression of EAE by immunization with TCR Vβ8(39-59) (Table 17); type: in vivo, Lewis rats
[4] = test system: popliteal LN cells; experiment: Proliferation of LN cells after EAE induction and TCR peptide treatment (Table 23); type: cell-based, Lewis rats
Protocol: The proliferative responses and specificity of T cells in the draining LN (popliteal) of rats treated with TCR Vβ8(39-59) peptide for EAE on day 13 after disease induction were examined (Table 23). On day 0, Lewis rats received an EAE-inducing regimen of GP-BP+CFA SC into their hind footpads. […] On day 20, about 7 days after onset of EAE, popliteal LNs were removed and T cell proliferative activity in response to the indicated antigens or mitogens were tested directly.
Results are shown as net ^3 Hthymidine incorporation of 5 ×

[5] = test system: EAE; experiment: Prevention, suppression and treatment of EAE with TCR Vβ8-39-59 peptide (Table 25); type: in vivo, Lewis rats
[6] = test system: LNC and T cell lines; experiment: T cell proliferation after treatment of EAE with TCR Vβ8 39-59/CFA (Table 27); type: cell-based, rats
Protocol: Lymphocyte Proliferation: Activation of T cells was measured by ^3 H-Tdy uptake. 500,000 lymph node cells or 20,000 line cells in the presence of 1 million irradiated thymic accessory cells were incubated with culture medium and antigens in microtiter wells for 18 hours prior to the addition of 0.5 μBq labeled thymidine. The cell cultures were harvested onto glass fiber filters and counted by liquid scintillation techniques. Mean CPM were calculated from triplicate cultures. Standard deviations (SD) from replicate cultures varied <10% from the mean value.
^a Treated rats were injected s.q. with 50 μg TCR Vβ839-59
^b LW cells collected after the untreated group recovered from EAE

[7] = peptide day 0, Gp-(S87-99) challenge day 44
[8] = peptide day 0, Gp-S49S challenge day 44
[9] = peptide/CFA s.q., Day 0, listed as TCR

DMGHGLRLIHYSYDVNSTEKG [TCR Vβ8(39-59), 21-amino acid CDR2 peptide of rat TCR Vβ8]
EAE Incidence ([1]; 100 μg peptide/CFA SC 30 days before challenge with 50 μg GPBP/CFA): 0/10 | protection from EAE ([1]; Lewis rats): prevented completely the induction of EAE | delayed hypersensitivity (DH) response, ear swelling [2]: 0.17 mm | Clinical Score ([3]; 100 μg peptide/CFA day 0, GPBP (50 μg) challenge day 0): 0.7 ± 0.3 | Clinical Score ([3]; 100 μg peptide/CFA day 0, Gp-S49S (100 μg) challenge day 0): 0.5 | Clinical Score [3, 7]: 0.0 | Histological Score Br [3, 7]: 0.5 ± 0.6 | Histological Score Sc [3, 7]: 0.8 ± 0.5 | Clinical Score [3, 8]: 0.8 | Histological Score Br [3, 8]: 1.8 ± 1.7 | Histological Score Sc [3, 8]: 2.8 ± 1.0 | T Cell Proliferation ([4]; LN cells day 20 of Control rats (saline day 13)): 31 cpm × 10^-3 | T Cell Proliferation ([4]; LN cells of rats given TCR Vβ 8(39-59) 50 μg ID day 13): 30 cpm × 10^-3 | T Cell Proliferation ([4]; LN cells of rats given TCR Vβ 8(39-59) 100 μg SC (in CFA) day 13): 39 cpm × 10^-3 | maximum clinical severity ([5]; 50 μg i.d. on day 0, 7 or 11, controls 3.4): 1.7-1.8 | duration of EAE ([5]; 50 μg i.d. on day 0, 7 or 11, controls 6.6 days): 3 to 4 days | EAE/TOTAL ([5]; i.d. in saline, Day 0): 5/6 | EAE/TOTAL ([5]; i.d., 10 μg, day of onset): 6/6 | Max Clin. Signs ([5]; i.d., 10 μg, day of onset): 2.8 ± 0.4 | Onset ([5]; i.d., 10 μg, day of onset): 12 | Duration ([5]; i.d., 10 μg, day of onset, listed as TCR): 4.0 ± 0.9 days | Duration ([5]; i.d., 10 μg, day of onset, listed as TCR peptide): 4.0 days | EAE/TOTAL ([5]; i.d., 50 μg, day of onset): 9/9 | Max Clin. Signs ([5]; i.d., 50 μg, day of onset): 2.8 ± 0.3 | Onset ([5]; i.d., 50 μg, day of onset): 12 | Duration ([5]; i.d., 50 μg, day of onset, listed as TCR): 3.1 ± 0.3 days | Duration ([5]; i.d., 50 μg, day of onset, listed as TCR peptide): 3.1 days | Duration ([5]; i.d., Day 0): 3.0 ± 1.8 days | Max Clin. Signs ([5]; i.d., Day 0): 1.8 ± 1.0 | Onset ([5]; i.d., Day 0): 15 | Duration ([5]; i.d., Day 7): 2.0 ± 1.9 days | EAE/TOTAL ([5]; i.d., Day 7): 4/6 | Max Clin. Signs ([5]; i.d., Day 7): 1.7 ± 1.4 | Onset ([5]; i.d., Day 7): 14 | Duration ([5]; i.d., Day before onset): 2.5 ± 2.1 days | EAE/TOTAL ([5]; i.d., Day before onset): 6/8 | Max Clin. Signs ([5]; i.d., Day before onset): 1.8 ± 1.3 | Onset ([5]; i.d., Day before onset): 12 | rats with onset of EAE completely prevented ([5]; injection after GP-MBP challenge but before onset): 4/19 | rats with all clinical signs of EAE completely suppressed ([5]; injection at the same time as GP-MBP challenge): 6/19 | Duration ([5]; peptide/CFA s.q., Day 0): 2.0 days | EAE/TOTAL ([5]; peptide/CFA s.q., Day 0): 8/13 | Max Clin. Signs ([5]; peptide/CFA s.q., Day 0): 1.3 | Onset ([5]; peptide/CFA s.q., Day 0): 13 | Duration [5, 9]: 2.0 ± 1.8 days | Max Clin. Signs [5, 9]: 1.3 ± 1.1 | Duration ([5]; peptide/CFA s.q., Day -40): 0 ± 0 days | EAE/TOTAL ([5]; peptide/CFA s.q., Day -40): complete protection against clinical EAE | Max Clin. Signs ([5]; peptide/CFA s.q., Day -40): 0 ± 0 | EAE/TOTAL ([5]; peptide/CFA s.q., Day -40, listed as TCR): 0/20 | Duration ([5]; peptide/CFA s.q., Day onset): 3.5 days | EAE/TOTAL ([5]; peptide/CFA s.q., Day onset): 20/20 | Max Clin. Signs ([5]; peptide/CFA s.q., Day onset): 2.3 ± 0.9 | Onset ([5]; peptide/CFA s.q., Day onset): 12 | Duration ([5]; peptide/CFA s.q., Day onset, listed as TCR): 3.5 ± 1.4 days | Duration ([5]; peptide/CFA, Day 10): 3.6 ± 0.9 days | EAE/TOTAL ([5]; peptide/CFA, Day 10): 5/5 | Max Clin. Signs ([5]; peptide/CFA, Day 10): 2.8 ± 0.4 | Onset ([5]; peptide/CFA, Day 10): 13 | net proliferation of reactive cells ([6]; GP-MBP-selected line from TCR peptide-treated rats): 49,000 CPM | net proliferation of reactive cells ([6]; GP-MBP-selected line from untreated EAE-recovered rats): 9,000 CPM | Proliferation ([6]; Treated rats (TCR Vβ8 39-59/CFA at onset), LNC): 39 ± 4 CPM/1000 | Proliferation ([6]; Treated rats, line BP/1st): 66 ± 6 CPM/1000 | Proliferation ([6]; Treated rats, line Vβ8/1st): 85 ± 2 CPM/1000 | Proliferation ([6]; Untreated rats (GPBP/CFA only), LNC): 34 ± 4 CPM/1000 | Proliferation ([6]; Untreated rats, line BP/1st): 24 ± 3 CPM/1000 | Proliferation ([6]; Untreated rats, line Vβ8/1st): 34 ± 2 CPM/1000 | Proliferation ([6]; Untreated rats, line Vβ14/1st): 11 ± 1 CPM/1000

Reference: patent US5614192A, “T cell receptor peptides as therapeutics for immune-related disease” (Connective Therapeutics, Inc., priority 1993, dated 1997)
